Like-named read-outs stand apart in the source and are kept apart here. No end group written: not given here.
How the values were obtained:
[1] = Stability of peptides to proteases in whole cell extract (WCE), HPLC; type: in vitro ADME, Kentucky 14 tobacco; details: other tissue homogenate, peptide alone, read-out: % Peptide Remaining Intact after 1 Hr.
Protocol: (§1) Whole cell extract (WCE) was prepared by grinding one gram of Kentucky 14 tobacco leaf tissue in liquid nitrogen, followed by extraction with 3 mL of 100 mM Tris-HCl buffer, pH 7.5, 50 mM NaCl. The mixture was clarified by spinning in a microcentrifuge (14,000 r.p.m., 5 minutes). The supernatant (WCE) was kept frozen as aliquots at −80° C. until required for an assay. Fifty micrograms of each peptide was incubated with different amounts of WCE in 50 mM Tris-HCl buffer, pH 7.5, total volume 50 microliters, for one hour at 37° C. The reaction was stopped by adding 1% trifluoroacetic acid (TFA). A sample of the reaction mixture (20 μL) was injected onto a Vydac C4 column (4.6×250 mm) in a Waters HPLC system with 515 pumps, 486 detector and Millenium software. The sample was eluted with a gradient of 0.1% TFA in water to 60% acetonitrile in 0.1% TFA. The area of the peak corresponding to the undigested peptide was integrated and compared with the equivalent peak from a 0% WCE control.
(§2) Assays for WCE protease degradation were performed as described in Example 8 except that one of the samples represented Magainin 2 that was mixed with Rev4 before the addition of WCE. The amounts of Magainin 2 and Rev4 remaining in the mixture were determined by HPLC as described for Examples 7 and 8.

[2] = tested on: proteases present in whole cell extract (WCE); assay: as above; type: in vitro ADME, Kentucky 14 tobacco; details: peptide alone
Protocol: as §1, §2

[3] = tested on: proteases present in whole cell extract (WCE); assay: Protection of Magainin 2 from degradation by WCE (Magainin 2 mixed with Rev4); type: in vitro ADME, Kentucky 14 tobacco; details: in Rev4 + Magainin 2 Mix
Protocol: as §1, §2

E. coli = details: Falla and Hancock 1997; cited from earlier work
Pseudomonas aeruginosa = details: Falla and Hancock 1997; cited from earlier work
Candida albicans = details: Falla and Hancock 1997; cited from earlier work
Staphylococcus aureus = details: Falla and Hancock 1997; cited from earlier work
Chymotrypsin = target: T1, Chymotrypsin (Bos taurus, UniProt P00766); assay: Inhibition of protease digestion of fluorescent labeled casein: chymotrypsin; type: biochemical; details: for Chymotrypsin Activity (Fluorescence Units) Mean: no-peptide control 375
T1 construct: purchased
Protocol: (§3) The ability of Rev4 to inhibit four different classes of proteases was tested using fluorescent labeled casein as substrate under the following conditions:
(§4) Each protease was incubated with substrate (5 μg/mL fluorescent labeled casein; Molecular Probes Inc., Eugene, Oreg.) and peptide in a total volume of 200 μL in a 96-well microtiter plate. Before use, papain was activated with cysteine (Arnon, 1970, Methods in Enzymology 19:226–44). After incubation at room temperature for one hour, fluorescence due to casein digestion was measured in a Luminescence Spectrometer (LS50B, Perkin Elmer Ltd., England) with an excitation wavelength of 505 nm and an emission wavelength of 513 nm. The blank control contained the substrate, buffer and peptide but lacked the protease.
The peptides described in EXAMPLE 12 were tested for their effects on the action of chymotrypsin on casein using the methods described in EXAMPLE 10.

Peronospora tabacina = assay: Tobacco blue mold spore germination assay; type: cell-based; details: for % Germination (mean +/− sem): final concentration of 2 μg/mL, control 76.6 +/− 11.2; for % Control: germination as % of no-peptide control, 2 μg/mL; for antifungal activity (in words): refers to EXAMPLE 12
Protocol: Tobacco blue mold (Peronospora tabacina) was used to compare the antifungal activity of Rev4 with that of MYP30. Spores of Peronospora tabacina were harvested from infected tobacco leaf with sterile water and washed three times. The spore suspension was diluted to 2,000 spores per mL. Peptide solution (2 μL) was added to spore suspension (48 μL) in a 96-well microtiter plate. After incubation in the dark at room temperature for 24 hours, the number of germinated spores was determined microscopically.
The peptides described as SEQ. ID Nos. 4, 5, 6, 7 and 8 in Examples 1, 3, 4, 5 and 6 were tested for antifungal activity as described in Example 11.

[4] = tested on: Verticillium dahliae racel; assay: Minimum concentration to completely inhibit spore germination, Verticillium; type: cell-based; details: 5,000 spores per mL, triplicate
From the text: (§5) The antifungal activity of Rev4 and related peptides was also compared using two tomato pathogens, Verticillium dahliae racel and Alternaria alternata f.sp. lycopersici. Spores were harvested from pure cultures grown on V8 medium, diluted to 5,000 spores per mL, and tested against dilution series of peptides in 96-well plates as described in U.S. Pat. No. 5,424,395.

[5] = tested on: Alternaria alternata f.sp. lycopersici; assay: Minimum concentration to completely inhibit spore germination, Alternaria; type: cell-based; details: 5,000 spores per mL, triplicate
From the text: as §5

Papain = target: T2, Papain (Carica papaya, UniProt P00784); assay: Inhibition of protease digestion of fluorescent labeled casein: papain; type: biochemical; details: pH 6.2, papain 0.01 mg/mL, pH6.2, read-out: % Inhibition of Proteolysis
T2 construct: purchased
T2 sequence (P00784 134-345): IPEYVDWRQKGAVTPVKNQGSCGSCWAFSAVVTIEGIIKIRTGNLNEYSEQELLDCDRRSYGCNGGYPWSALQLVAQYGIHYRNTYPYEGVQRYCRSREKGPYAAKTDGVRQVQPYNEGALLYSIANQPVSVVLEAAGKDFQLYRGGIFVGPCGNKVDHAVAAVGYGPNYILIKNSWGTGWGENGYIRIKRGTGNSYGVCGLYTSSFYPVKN
Protocol: as §3, §4

Pepsin = target: T3, Pepsin (Sus scrofa, UniProt P00791); assay: Inhibition of protease digestion of fluorescent labeled casein: pepsin; type: biochemical; details: pH 2, pepsin 0.01 mg/mL, pH2.0, read-out: % Inhibition of Proteolysis
T3 construct: purchased
T3 sequence (P00791 60-385): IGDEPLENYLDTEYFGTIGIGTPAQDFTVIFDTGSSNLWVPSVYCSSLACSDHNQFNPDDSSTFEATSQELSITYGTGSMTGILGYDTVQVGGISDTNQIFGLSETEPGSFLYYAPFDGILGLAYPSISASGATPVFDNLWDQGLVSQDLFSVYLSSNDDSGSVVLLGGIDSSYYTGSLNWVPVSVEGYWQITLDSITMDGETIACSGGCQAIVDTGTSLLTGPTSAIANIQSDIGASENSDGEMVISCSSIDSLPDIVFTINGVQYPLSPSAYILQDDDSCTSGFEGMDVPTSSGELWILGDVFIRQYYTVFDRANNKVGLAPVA
Protocol: as §3, §4

[6] = tested on: proteases in the intercellular fluid of plant leaves; details: cited from earlier work

Work on “H-GIGKFLHSAKKFGKAFVGEIMNS-OH [Magainin 2, reference compound]” yielded a remaining at 1 h, 1 mg/mL ([1]; pH 7.5, 15% WCE) of 10.9%, a remaining at 1 h, 1 mg/mL ([1]; pH 7.5, 30% WCE) of 0.3% and a remaining at 1 h, 1 mg/mL ([1]; pH 7.5, 90% WCE) of 0.4%. For the same substance, the “% Peptide Remaining Intact after 1 Hr.” value ([2]; 45% WCE) was 0.4%, the “% Peptide Remaining Intact after 1 Hr.” value ([2]; 60% WCE) was 0.3% and the “% Peptide Remaining Intact after 1 Hr.” value ([3]; 15% WCE) was 89.7%. For the same substance, the “% Peptide Remaining Intact after 1 Hr.” value ([3]; 30% WCE) was 87.6%, the “% Peptide Remaining Intact after 1 Hr.” value ([3]; 60% WCE) was 73.1% and the “% Peptide Remaining Intact after 1 Hr.” value ([3]; 90% WCE) was 56.3%.
In the case of “ILKKWPWWPWRR [CP-11, synthetic peptide based on indolicidin (Falla and Hancock)]”, the “activity against E. coli relative to indolicidin (in words)” value (E. coli) is listed as “better activity”, the “activity against Pseudomonas aeruginosa relative to indolicidin (in words)” value (Pseudomonas aeruginosa) is listed as “better activity” and the “activity against Candida albicans relative to indolicidin (in words)” value (Candida albicans) is listed as “better activity”. For the same substance, the “activity against Staphylococcus aureus relative to indolicidin (in words)” value (Staphylococcus aureus) was “reduced activity”.
For “Ile Leu Lys Gly Phe Pro Gly Phe Pro Arg Arg Lys (ILKGFPGFPRRK-NH2) [SEQ. ID NO. 8, derivative of indolicidin in which Trp residues were replaced by Phe and a Pro residue was deleted]”, the “protection of fluorescent-labeled casein from chymotrypsin (in words)” value (“protection of fluorescent-labeled casein” below) (Chymotrypsin) was “did not have this protective effect”, the “Chymotrypsin Activity (Fluorescence Units) Mean” value (“Chymotrypsin Activity” below) (Chymotrypsin; peptide 5 μg/mL) was 385 Fluorescence Units and the “Chymotrypsin Activity” value (Chymotrypsin; peptide 20 μg/mL) was 321 Fluorescence Units. The “% Germination (mean +/− sem)” value (Peronospora tabacina) was 17.3 +/− 3.5%, the “% Control” value (Peronospora tabacina) was 23% and the “antifungal activity (in words)” value (Peronospora tabacina) was “had retained antifungal activity”.
For “Ile Leu Pro Phe Lys Phe Pro Phe Phe Pro Phe Arg Arg (ILPFKFPFFPFRR-NH2) [SEQ. ID NO. 7, indolicidin in which the Trp residues were replaced with Phe]”, the “protection of fluorescent-labeled casein” value (Chymotrypsin) was “did not have this protective effect”, the “Chymotrypsin Activity” value (Chymotrypsin; peptide 5 μg/mL) was 386 Fluorescence Units and the “Chymotrypsin Activity” value (Chymotrypsin; peptide 20 μg/mL) was 385 Fluorescence Units. The “% Germination (mean +/− sem)” value (Peronospora tabacina) was 8.8 +/− 5.4%, the “% Control” value (Peronospora tabacina) was 11% and the “antifungal activity (in words)” value (Peronospora tabacina) was “had retained antifungal activity”. The “minimum concentration required to completely inhibit spore germination for at least 48 hours” value [4] was 50 µg/mL and the “minimum concentration required to completely inhibit spore germination for at least 48 hours” value [5] was 100 µg/mL.
Work on “RRWPWWPWKWPLI-NH2 [Rev4, Arg Arg Trp Pro Trp Trp Pro Trp Lys Trp Pro Leu Ile]” yielded an inhibition at 2.5 µg/mL (Chymotrypsin; pH 8, Rev4 2.5 μg/ml, chymotrypsin 0.01 mg/mL, pH8.0, read-out: % Inhibition of Proteolysis) of 16%, an inhibition at 5 µg/mL (Chymotrypsin; pH 8, Rev4 5 μg/ml, chymotrypsin 0.01 mg/mL, pH8.0, read-out: % Inhibition of Proteolysis) of 42% and an inhibition at 10 µg/mL (Chymotrypsin; pH 8, Rev4 10 μg/ml, chymotrypsin 0.01 mg/mL, pH8.0, read-out: % Inhibition of Proteolysis) of 75%. It also gave an inhibition at 20 µg/mL (Chymotrypsin; pH 8, Rev4 20 μg/ml, chymotrypsin 0.01 mg/mL, pH8.0, read-out: % Inhibition of Proteolysis) of 97%, an inhibition at 2.5 µg/mL (Papain; Rev4 2.5 μg/ml) of 29% and an inhibition at 5 µg/mL (Papain; Rev4 5 μg/ml) of 72%. It also gave an inhibition at 10 µg/mL (Papain; Rev4 10 μg/ml) of 93%, an inhibition at 20 µg/mL (Papain; Rev4 20 μg/ml) of 99% and an inhibition at 25 µg/mL (Pepsin; Rev4 25 μg/ml) of 3%. For the same substance, the inhibition at 50 µg/mL (Pepsin; Rev4 50 μg/ml) was 0% and the inhibition at 100 µg/mL (Pepsin; Rev4 100 μg/ml) was 0%.
For “RRWPWWPWKWPLIGGGYDPAPPPPPP [SEQ. ID NO. 6, Rev4 with a C-terminal extension of 13 amino acids]”, the “protection of fluorescent-labeled casein” value (Chymotrypsin) was “protected fluorescent-labeled casein from the action of chymotrypsin”, the “Chymotrypsin Activity” value (Chymotrypsin; peptide 5 μg/mL) was 212 Fluorescence Units and the “Chymotrypsin Activity” value (Chymotrypsin; peptide 20 μg/mL) was 45 Fluorescence Units. For the same substance, the “% Germination (mean +/− sem)” value (Peronospora tabacina) was 5.7 +/− 9.8%, the “% Control” value (Peronospora tabacina) was 7% and the “minimum concentration required to completely inhibit spore germination for at least 48 hours” value [4] was 23 µg/mL. For the same substance, the “minimum concentration required to completely inhibit spore germination for at least 48 hours” value [5] was 50 µg/mL.
For “Ser Arg Arg Trp Pro Trp Trp Pro Trp Lys Trp Pro Leu Ile (SRRWPWWPWKWPLI-OH) [SEQ. ID NO. 5, analog of Rev4 in which an extra Ser was added to the N-terminus]”, the “protection of fluorescent-labeled casein” value (Chymotrypsin) was “protected fluorescent-labeled casein from the action of chymotrypsin”, the “Chymotrypsin Activity” value (Chymotrypsin; peptide 5 μg/mL) was 162 Fluorescence Units and the “Chymotrypsin Activity” value (Chymotrypsin; peptide 20 μg/mL) was 44 Fluorescence Units. The “% Germination (mean +/− sem)” value (Peronospora tabacina) was 6.8 +/− 6.3%, the “% Control” value (Peronospora tabacina) was 9% and the “minimum concentration required to completely inhibit spore germination for at least 48 hours” value [4] was 50 µg/mL.
For “cecropin B: antimicrobial peptide cecropin B (KWKVFKKIEKMGRNIRNGIVKAGPAIAVLGEAKAL; ends and bridges not checked; UniProt P01508 27-61, looked up)”, the “degradation / stability against proteases of plant intercellular fluid (in words)” value [6] is given as “rapidly degraded”.
